According to ChEMBL document CHEMBL5233255, “Natural and nature-inspired stilbenoids as antiviral agents” (Eur J Med Chem, 2020):
≈ marks a conversion by molar mass, not a printed value.

Columns and labels:
[1] = tested on: Human immunodeficiency virus 1; test: Antiviral activity against HIV-1 infected in HEK293T cells; assay type: functional, organism-based; details: Human immunodeficiency virus 1, HEK-293T
[2] = Cytotoxicity against HEK293T cells; assay type: toxicity, cell-based, HEK-293T; details: human, read-out: TC50 (the source's name)
[3] = Cytotoxicity against human A549 cells assessed as reduction in cell viability by Alamar blue assay; assay type: toxicity, cell-based
[4] = Cytotoxicity against human MT4 cells expressing eGFP under control of HIV-1 LTR promoter sequence; assay type: toxicity, cell-based
[5] = Inhibition of HIV-1 integrase catalysed 3' processing activity by densitometric analysis; design: species or system Human immunodeficiency virus 1
[6] = Inhibition of recombinant HIV-1 integrase catalysed strand transfer activity measured after 60 mins by electrochemiluminescent plate-based assay; design: species or system Human immunodeficiency virus 1
[7] = Selectivity index, ratio of CC50 for cytotoxicity against human MT4 cells expressing eGFP under control of HIV-1 LTR promoter sequence to EC50 for antiviral activity against HIV-1 infected in human MT4 cells expressing eGFP under control of HIV-1 LTR promoter sequence; assay type: toxicity, cell-based; details: read-out: Ratio CC50/EC50
[8] = tested on: Human immunodeficiency virus 1; test: Antiviral activity against VSV pseudo-typed HIV-1 infected in human MT4 cells expressing eGFP under control of HIV-1 LTR promoter sequence; assay type: functional, organism-based; details: Human immunodeficiency virus 1, MT4
Influenza A virus [9] = test: Antiviral activity against influenza A virus A/PR/8/34 (H1N1) infected in human A549 cells assessed as inhibition of RANTES production incubated for 48 hrs by ELISA; assay type: functional, organism-based; details: A549, 48 h
[10] = Cytotoxicity against human Huh-7 cells assessed as reduction in cell viability incubated for 3 days by MTT assay; assay type: toxicity, cell-based; details: time 3 day
dengue virus type 2 = test: Antiviral activity against Dengue virus 2 New Guinea C infected in human Huh-7 cells assessed as reduction in virus induced cytopathic effect incubated for 3 days by trypan blue staining based assay; assay type: functional, organism-based; details: Huh-7, 72 h
[11] = Selectivity index, ratio of CC50 for cytotoxicity against human Huh-7 cells to EC50 for Dengue virus 2 New Guinea C infected in human Huh-7 cells; assay type: toxicity, cell-based; details: read-out: Ratio CC50/EC50
Hepatitis C virus [12] = test: Antiviral activity against Hepatitis C virus infected in human Huh7.5 cells assessed as reduction in viral replication; assay type: functional, organism-based, Hepacivirus hominis
Hepatitis C virus [13] = test: Antiviral activity against Hepatitis C virus genotype 2 infected in human Huh7.5 cells assessed as reduction in viral replication by RT-PCR assay; assay type: functional, organism-based, Hepacivirus hominis; details: genotype 2, Huh7.5
[14] = Cytotoxicity against human Huh7.5 cells infected with Hepatitis C virus assessed as reduction in cell viability; assay type: toxicity, cell-based, Huh-7.5
Hepatitis C virus [15] = test: Antiviral activity against Hepatitis C virus genotype 2 infected in renilla luciferase-J6/JFH1 RNA-transfected human Huh7.5 cells assessed as reduction in viral replication incubated for 72 hrs by qRT-PCR analysis; assay type: functional, organism-based, Hepacivirus hominis; details: genotype 2, Huh7.5, 72 h
Hepatitis C virus [16] = test: Antiviral activity against Hepatitis C virus genotype 1 infected in Bart79I RNA-transfected human Huh7.5 cells assessed as reduction in viral replication incubated for 24 to 72 hrs by RT-PCR assay; assay type: functional, organism-based, Hepacivirus hominis; details: genotype 1, Huh7.5
[17] = Cytotoxicity against HCV RNA-transfected human Huh7.5 cells assessed as reduction in cell viability; assay type: toxicity, cell-based, Huh-7.5; details: HCV RNA-transfected Huh7.5 cells
Influenza A virus [18] = test: Antiviral activity against influenza A virus A/Guangdong/243/72 ([…]) infected in MDCK cells assessed as inhibition of virus-induced cytopathic effect; assay type: functional, organism-based
[19] = Selectivity index, ratio of CC50 for cytotoxicity against MDCK cells to IC50 for influenza A virus A/Guangdong/243/72 ([…]) infected in MDCK cells; assay type: toxicity, cell-based; details: dog, read-out: Ratio CC50/IC50
[20] = tested on: Human immunodeficiency virus 1; test: Antiviral activity against HIV-1 infected in human C8166 cells assessed as inhibition of viral replication; assay type: functional, organism-based; details: Human immunodeficiency virus 1, C8166
[21] = Therapeutic index, ratio of CC50 for cytotoxicity against human C8166 cells to EC50 for antiviral activity against HIV-1 infected in C8166 cells; assay type: toxicity, cell-based; details: read-out: Ratio CC50/EC50
[22] = Cytotoxicity against human C8166 cells assessed as inhibition of cell growth by MTT assay; assay type: toxicity, cell-based
Human alphaherpesvirus 2 = test: Antiviral activity against HSV-2 333 infected in African green monkey Vero cells incubated for 3 days by plaque reduction assay; assay type: functional, organism-based; details: Human alphaherpesvirus 2, 333, Vero, 72 h
Human alphaherpesvirus 1 [23] = test: Antiviral activity against HSV-1 clinical isolate infected in African green monkey Vero cells incubated for 3 days by plaque reduction assay; assay type: functional, organism-based; details: Human alphaherpesvirus 1, Vero, 72 h
Human alphaherpesvirus 1 [24] = test: Antiviral activity against HSV-1 15577 infected in African green monkey Vero cells incubated for 3 days by plaque reduction assay; assay type: functional, organism-based; details: Human alphaherpesvirus 1, 15577, Vero, 72 h

With Oc1ccc(-c2ncc(-c3cc(O)cc(O)c3)cn2)cc1 the EC50 [1] was > 75 µM.
In the case of Oc1ccc(-c2c(-c3cc(O)cc(O)c3)oc3ccccc23)cc1, the CC50 [2] is reported as 84.8 µM and the EC50 [1] is reported as 35 µM.
Oc1ccc(/C=C/c2cc(O)cc3c2[C@@H](c2cc(O)cc4c2[C@H](c2cc(O)cc5c2[C@@H](c2cc(O)cc(O)c2)[C@H](c2ccc(O)cc2)O5)[C@@H](c2ccc(O)cc2)O4)[C@H](c2ccc(O)cc2)O3)cc1 gave a CC50 [3] of 8.4 µM.
With CCOc1ccc(/N=N/c2ccc(/C=C/c3ccc(/N=N/c4ccc(OCC)cc4)cc3S(=O)(=O)O)c(S(=O)(=O)O)c2)cc1 the CC50 [4] was > 100 µM, the IC50 [5] was 1.1 µM and the IC50 [6] was 0.5 µM. The selectivity ratio [7] was > 166 and the EC50 [8] was 0.6 µM.
In the case of Nc1ccc(/N=N/c2ccc(/C=C/c3ccc(/N=N/c4ccc(N)c5ccc(S(=O)(=O)O)cc45)cc3S(=O)(=O)O)c(S(=O)(=O)O)c2)c2ccc(S(=O)(=O)O)cc12, the CC50 [4] is reported as > 100 µM, the IC50 [5] is reported as 3.2 µM and the IC50 [6] is reported as 3.2 µM. The selectivity ratio [7] was > 6.5 and the EC50 [8] was 15.3 µM.
With Oc1ccc(-n2cc(-c3cc(O)cc(O)c3)nn2)cc1 the EC50 [1] was > 75 µM.
In the case of O=C(/C=C/c1ccc(O)cc1)c1cc(O)cc(O)c1, the EC50 [1] is reported as > 75 µM.
With O=Cc1ccc2c(c1)C(c1cc(O)cc3c1[C@H](c1cc(O)cc(O)c1)[C@@H](c1ccc(O)cc1)O3)[C@H](c1ccc(O)cc1)O2 (some centres undefined) the CC50 [3] was > 400 µM and the EC50 (Influenza A virus [9]) was 8.48 µM.
In the case of Oc1ccc(-c2cnc(-c3cc(O)cc(O)c3)nc2)cc1, the EC50 [1] is reported as > 75 µM.
In the case of Oc1cc(O)cc(-c2ccc(-c3ccncc3)cc2)c1, the EC50 [1] is reported as > 100 µM.
With Nc1ccc(/C=C/c2ccc(N)cc2S(=O)(=O)O)c(S(=O)(=O)O)c1 the IC50 [5] was > 111 µM and the IC50 [6] was > 111 µM.
With Oc1cc(O)cc(-c2ccc3cc(O)ccc3c2)c1 the EC50 [1] was > 75 µM.
With Oc1ccc([C@@H]2c3c(O)cc(O)cc3[C@@H]3c4c(cc(O)c5c4[C@@H]2[C@H](c2ccc(O)cc2)[C@H]5c2cc(O)cc(O)c2)O[C@H]3c2ccc(O)cc2)cc1 the CC50 [3] was > 1000 µM and the EC50 (Influenza A virus [9]) was 0.57 µM.
Work on Oc1ccc(-c2ccc(-c3cc(O)cc(O)c3)cc2)cc1 yielded a CC50 [2] of 179 µM and an EC50 [1] of 8.8 µM.
COc1cc(/C(C)=C/c2cc3ccccc3[nH]2)cc(OC)c1OC showed a CC50 at 72 h [10] of 1.7 µM, an EC50 (dengue virus type 2) of 0.00812 µM and a selectivity ratio [11] of 209.
In the case of Oc1ccc(/C=C/c2cc(O)cc3c2[C@@H](c2cc(O)cc(O)c2)[C@H](c2ccc(O)cc2)O3)cc1 [EPSILON-VINIFERIN], the EC50 (Hepatitis C virus [12]) is reported as 0.159 µM, the EC50 (Hepatitis C virus [13]) is reported as 2.9 µM and the CC50 [14] is reported as > 10 µM. It also gave a CC50 [3] of 54.7 µM, an EC50 (Hepatitis C virus [15]) of 0.1 µM and an EC50 (Hepatitis C virus [16]) of 7 µM. The EC50 (Influenza A virus [9]) was 10.1 µM and the CC50 [17] was > 10 µM.
For COc1cc([C@H]2Oc3c(ccc(/C=C/c4cc(O)cc(O)c4)c3OC)[C@@H]2c2cc(O)cc(O)c2)ccc1O, the IC50 (Influenza A virus [18]) was 12 µg/mL (≈ 23.3 µM) and the selectivity ratio [19] was 9.6.
In the case of NC(=O)c1ncn([C@@H]2O[C@H](CO)[C@@H](O)[C@H]2O)n1 [RIBAVIRIN], the IC50 (Influenza A virus [18]) is reported as 5.54 µg/mL (≈ 22.7 µM).
In the case of O=S(=O)([O-])O[C@H]1[C@H](O)[C@@H](O)[C@H](Oc2cc(O)cc(/C=C/c3ccc(O)cc3)c2)O[C@@H]1CO.[Na+], the EC50 [20] is reported as > 200 µg/mL, the selectivity ratio [21] is reported as < 4.06 and the CC50 [22] is reported as 813 µg/mL.
In the case of O=S(=O)([O-])OC[C@H]1O[C@@H](Oc2cc(O)cc(/C=C/c3ccc(O)cc3)c2)[C@H](O)[C@@H](O)[C@@H]1O.[Na+], the EC50 [20] is reported as > 200 µg/mL, the selectivity ratio [21] is reported as < 3.73 and the CC50 [22] is reported as 746 µg/mL.
In the case of Oc1ccc(/C=C/c2cc(O)cc3c2C(c2cc(O)cc(O)c2)C(c2ccc(O)cc2)O3)cc1 (racemic), the EC50 (Hepatitis C virus [13]) is reported as 9.3 µM, the EC50 (Hepatitis C virus [15]) is reported as 0.2 µM and the EC50 (Hepatitis C virus [16]) is reported as 1.7 µM. For the same molecule, the CC50 [17] was > 10 µM.
In the case of CC1=C[C@@H](c2c(O)cc(-c3cc4ccc(O)cc4o3)cc2O)[C@@H](C(=O)c2ccc(O)cc2O)[C@H](c2ccc(O)cc2O)C1 [MULBERROFURAN C], the IC50 (Human alphaherpesvirus 2) is reported as 2.5 µg/mL (≈ 4.31 µM), the IC50 (Human alphaherpesvirus 1 [23]) is reported as 2.5 µg/mL (≈ 4.31 µM) and the IC50 (Human alphaherpesvirus 1 [24]) is reported as 2.5 µg/mL (≈ 4.31 µM).
